According to US20240197716A1, “TREATMENTS FOR CUSHING'S SYNDROME THAT DO NOT SIGNIFICANTLY AFFECT CARDIAC RHYTHMS” (Corcept Therapeutics Incorporated, priority 2022, published 2024):
Where “and” joins values, the source holds several entries; their conditions need not be identical. Equal values may be shown once. Read-outs that look alike come from different tables or passages of the source.

What was measured:
[1] = Effect of food on relacorilant Cmax; format: in vivo
[2] = test system: cardiac repolarization in healthy volunteers; experiment: Thorough QT/QTc (TQT) study (NCT04795479), cardiodynamic Holter ECG; settings: for ΔΔQTcF Estimate (msec) (90% CI), predicted at geometric mean Cmax: PK/QTc population
Source text: These studies included a randomized, partial double-blind, placebo- and positive-controlled, multiple-dose, 4-way crossover, thorough QT/QTc (TQT) study to investigate the effect of relacorilant on cardiac repolarization. These studies measured placebo-corrected change-from-baseline QTcF (ΔΔQTcF); change-from-baseline of QTcF, HR, and PR and QRS intervals (ΔQTcF, ΔHR, ΔPR, and ΔQRS); placebo-corrected change-from-baseline of HR, and PR and QRS intervals (ΔΔHR, ΔΔPR, and ΔΔQRS); categorical outliers for QTcF, HR, and PR and QRS intervals; the frequency of treatment-emergent changes of T-wave morphology and presence of U-waves; PK parameters of relacorilant and its metabolites (CORT125337, CORT125336, and CORT125295) and moxifloxacin; safety profiles, including AEs/SAEs, physical examination, clinical chemistry, hematology, urinalysis, ECG, and vital signs.
A phase 1, randomized, partial double-blind, crossover thorough QT study (NCT04795479) to assess the effect of multiple doses of relacorilant on cardiac repolarization in healthy volunteers. Participants were randomized to dosing sequences to receive relacorilant at therapeutic (400 mg QD, n=25) or supra-therapeutic (800 mg QD, n=28) doses, or placebo (n=29) for 5 days. Moxifloxacin (400 mg single dose, n=28) was used as a positive control.
Each subject received 4 treatments in a randomized sequence during the study period. Each dosing consisted of 8 capsules (except for moxifloxacin on Day 5), including: • Treatment T: Multiple oral doses of 400 mg relacorilant (4 capsules)+placebo for relacorilant (4 capsules) once daily for 5 days; • Treatment ST: Multiple oral doses of 800 mg relacorilant (8 capsules) once daily for 5 days; • Treatment P: Multiple oral doses of placebo for relacorilant (8 capsules) once daily for 5 days; • Treatment M: Multiple oral doses of placebo for relacorilant (8 capsules) once daily for 4 days and a final single oral dose of 400 mg moxifloxacin (one tablet) on Day 5.
In a portion of present study conducted in healthy subjects, a single dose of moxifloxacin (400 mg; Treatment M) on the last day of its respective treatment period was included as a positive control to determine the sensitivity of the study to detect small QTc changes. Relacorilant doses included both a therapeutic dose level (400 mg; Treatment T) and a supra-therapeutic dose level (800 mg; Treatment ST). The study was blinded to subjects, investigator, study staff, and sponsor with respect to relacorilant (Treatments T and ST) and placebo for relacorilant (Treatment P); it was open-labeled for moxifloxacin (Treatment M). Enrolled subjects were randomized to one of twelve (12) dosing sequences to receive 4 different treatments according to the assigned dosing sequence as shown below:
In each period, subjects were admitted to the clinical site in the morning of Day-1 and stayed in the site until the morning of Day 6. In the study periods when subjects were randomized to Treatment T, ST, or P, the applicable study product (400 mg or 800 mg relacorilant or placebo for relacorilant) were taken once daily in the morning for 5 consecutive days. During the dosing period of positive control (Treatment M), placebo for relacorilant were administered on Days 1 to 4 to align with the dosing schedule for the other three treatments and moxifloxacin were administered in an open-labeled manner as a single dose in the morning of Day 5. Therefore, the treatment on Days 1 to 4 were double-blinded; it was not known before the morning on Day 5 whether or not a subject was allocated to receive moxifloxacin. Each dosing period (from Periods 2 to 4) was separated from the previous period by a washout period of at least 10 days from Day 6 of the previous period to Day 1 (first dose) of the subsequent period to prevent a carryover effect. The final visit was on Day 6 of Period 4. A safety phone follow-up was scheduled at 7 days (±2 days) post the final visit/early termination (ET) visit.

[3] = human, in vivo
Description: A phase 1, 3-part, single-center, First-in-Human study (NCT03508635) included 103 healthy volunteers who received single or multiple ascending doses (SAD/MAD) of relacorilant (up to 500 mg QD) for up to 14 days; 24 received placebo.
Relacorilant plasma concentration and QTcF data in the SAD and MAD phases were best fit with a linear model with treatment-specific intercepts. For both phases, the model-estimated slopes (90% CI) were slightly negative (SAD: −0.59[−2.14, 0.97]×10^−3 msec/ng/ml; MAD: −2.34[−3.16 to −1.52]×10^−3 msec/ng/ml). Therefore, a concentration-dependent effect of relacorilant on QTc prolongation was not identified.

[4] = Plasma concentrations in TQT study (LC-MS/MS, non-compartmental PK); format: in vivo, human; settings: for Cmax: human, plasma, oral, Day 5, read-out: Geometric Mean Cmax
Description: PK analyses were performed using non-compartmental methods to obtain estimates of the following parameters, where possible: […] Day 1: Cmax, Tmax, AUClast, and AUC0-24; Day 5: Cmax, Tmax, Cmin, AUClast, AUC0-tau, Cavg, FI, and AR. For moxifloxacin: Cmax, Tmax, AUClast, and AUC0-24. […] PK blood sampling for Day 1 was completed prior to dosing on Day 2.

increase of Cmax relative to fasting conditions ([1]; high-fat breakfast): approximately 34%
increase of Cmax relative to fasting conditions ([1]; moderate-fat breakfast): ~41%
observed range of plasma concentrations, upper end [3]: approximately 4000 ng/ml
time of Cmax [3]: 2 h
Cmax ([4]; 400 mg QD): 1830 ng/mL
Cmax ([4]; 800 mg QD): 2710 ng/mL
observed range of plasma concentrations, upper end ([4]; supra-therapeutic dosing (800 mg)): ~4500 ng/mL
SMILES: Cn1cc(S(=O)(=O)N2CCC3=Cc4c(cnn4-c4ccc(F)cc4)C[C@]3(C(=O)c3cc(C(F)(F)F)ccn3)C2)cn1 [relacorilant, ((R)-(1-(4-fluorophenyl)-6-((1-methyl-1H-pyrazol-4-yl)sulfonyl)-4,4a,5,6,7,8-hexahydro-1H-pyrazolo[3,4-g]isoquinolin-4a-yl)(4-(trifluoromethyl)pyridine-2-yl)methanone)]
ΔΔQTcF Estimate (msec) (90% CI), predicted at geometric mean Cmax ([2]; 400 mg (Day 5)): -3.02 ms
ΔΔQTcF Estimate (msec) (90% CI), predicted at geometric mean Cmax ([2]; 400 mg (Day 5), listed as Relacorilant): −3.02 (−4.16, −1.88)^1 msec
effect on HR ([2]; 400 mg and 800 mg QD): did not have a clinically relevant effect on HR
ΔΔQTcF Estimate (msec) (90% CI), predicted at geometric mean Cmax ([2]; 800 mg (Day 5)): -3.87 ms
ΔΔQTcF Estimate (msec) (90% CI), predicted at geometric mean Cmax ([2]; 800 mg (Day 5), listed as Relacorilant): −3.87 (−5.56, −2.17)^1 msec
LS mean placebo-corrected ΔHR, highest across post-dose time points ([2]; 2 hours post-dose on Day 5, 800 mg treatment): 2.4 bpm
LS mean placebo-corrected ΔHR, lowest across post-dose time points ([2]; 12 hours post-dose on Day 1, 800 mg treatment): −3.2 bpm
tolerability ([2]; Across all 3 studies (First-in-Human, TQT, and CS studies)): well tolerated
effect on ΔΔQTcF exceeding the 10-msec threshold ([2]; concentration-QTc modeling, plasma concentrations up to ˜4500 ng/mL): excluded
estimated slope (90% CI) of plasma concentration in the concentration-QTc relationship ([2]; linear mixed-effects model): −0.97(−1.68, −0.25) ×10^−3 msec/ng/ml and −0.97 ×10^−3 msec/ng/ml
effect on ECG parameters ([2]; therapeutic (400 mg) and supra-therapeutic (800 mg) doses): no adverse effects on ECG parameters
